The source of these data is article PMC8861431, “Tissue Pharmacokinetic Properties and Bystander Potential of Hypoxia-Activated Prodrug CP-506 by Agent-Based Modelling” (Frontiers in Pharmacology, 2022).

Data set [1] can be described thus: Media stability studies (stirred medium without serum, 37°C). The format is physicochemical. As for the experimental part:
The stability of each compound was determined in stirred medium (without serum) maintained under aerobic conditions by the constant supply of a humidified gas mixture comprised of 21% O2, 5% CO2 with balance N2. Vials were spiked with 100 µM of the relevant compound, and samples were collected using a positive displacement pipettor for up to 3 h thereafter. The collected samples were then treated with two-volumes of ice-cold acetonitrile containing 2 µM of the relevant deuterated (D8) internal standard and stored at −80°C until LC-MS/MS analysis.
The LC system for tandem MS consisted of an Agilent 1200 autosampler (4°C) and binary pump, a 3.0 × 50 mm, 1.8-micron Zorbax SB-C18 column (Agilent; PN: 827975-302) and 2.1 × 7 mm guard column (Alltech, IL) maintained at 35°C, at a pressure of <400 bar and flow rate of 0.3 ml/min. The mobile phase comprised a gradient of 0.01% formic acid in 80% acetonitrile - 20% water, v/v (solvent A), and 0.01% formic acid in water (solvent B). Initial mobile phase composition was 20% solvent A and 80% solvent B, increasing to 60% A (0–3 min) then 80% A (3–5.45 min), returning to initial conditions (5.5–6 min). Post-run time was 1 min, and the total run time was […]. Mass spectrometric detection was carried out using an Agilent 6410 triple quadrupole mass spectrometer equipped with a multimode ionization (MMI) source. The mass spectrometer was operated in electrospray positive ionization mode using multiple reaction monitoring (MRM), with Q1 & Q3 set to unit resolution ([…]). The electrospray ionization parameters, optimized for the parent molecular ion ([M+H]+) abundance were: drying gas temperature 325°C, vaporiser temperature 150°C, drying gas flow 5 L/min, nebuliser pressure 50 psi, capillary voltage 1.8 kV, Delta EMV 300 V. Ultra-pure nitrogen was used as collision gas. The divert valve feature of the Agilent 6410 triple quadrupole mass spectrometer was utilised to prevent the eluate from entering the ionisation source chamber during the first 0.5 min of each run. For CP-506 samples, positively charged ions representing the [M+H]+ for CP-506 and CP-506-D8 were collisionally dissociated to form specific product ions which were monitored in MS2 (unit resolution). The MRM transition, ionization mode, collision energy, dwell time, fragmentor voltage and retention time for all compounds is provided in Supplementary Table S2. Agilent MassHunter software (v.4.04.00) was used for data acquisition and chromatographic peak integration.

Data set [2] relates to HCT-116 cell line panel. The data set is described as follows: Anti-proliferative IC50 assay of authentic CP-506 metabolites. The class given is cell-based, human. The following applies: Homo sapiens, HCT-116, 120 h, read-out: Anti-proliferative IC50 of metabolite. On the procedure:
Cells (700–1,000 per well) were seeded with 100 µl culture medium into 96-well plates and left to attach for 2 h in a humidified 37°C incubator. Compounds were prepared in culture medium and serially diluted (1:3) in the well volume. […] Aerobic experiments were performed under standard tissue culture conditions (21% O2), and the anoxic experiments were performed in parallel in a 5% H2/Pd catalyst anaerobic chamber (Shellab Bactron, Sheldon manufacturing Inc., Cornelius, OR) using pre-equilibrated media and plasticware. All anoxia experiments were conducted using a catalyst-scrubbed anaerobic chamber, unless otherwise specified, with gas oxygen measurements of <1 ppm O2. Cells were then washed three times and left to grow for 96 h before cell density determination using a sulforhodamine B (SRB) assay ([Vichai and Kirtikara, 2006]). To this end, the cells were fixed by layering 50 µl of trichloroacetic acid (40% w/v in MilliQ water) on top of the culture media (150 µl) in each well for 1 h at 4°C. Plates were rinsed under running tap water and stained with 50 µl of SRB (0.4% w/v in MilliQ water containing 1% v/v acetic acid) for 30 min at room temperature. Plates were rapidly destained by rinsing three times in tap water containing 1% (v/v) acetic acid. The stain was solubilized by adding 100 µl of 10 mM unbuffered Tris base to each well with gentle rocking for 1 h. Plates were read on a Biotek ELx808 Absorbance Microplate Reader at 490 nm using KC4 software. The IC50 value (concentration required to reduce staining to 50% of the untreated control on the same plate) for each compound was determined by interpolation using a 4-parameter logistic regression model.
FIGURE 3 Hypoxia-dependent metabolism of CP-506 leads to the formation of a multitude of short-lived species with variable cytotoxicity. (A) Bioreductive metabolism of CP-506 under normoxic (21% O2) and anoxic conditions (<1 ppm O2). Concentrations of CP-506 and its metabolites (CP-506H, CP-506M and CP-506M-Cl2) were quantified by mass spectrometry with reference to the appropriate deuterated (D8) internal standard. Values are the mean ± SEM for three independent experiments. (B) Stability of CP-506 metabolites in culture medium (without cells) at 37°C. Concentrations were determined by mass spectrometry using standard curves generated from authenticated stocks. […] IC50 values are the mean ± SEM of duplicate wells for three independent experiments. T-tests were performed using GraphPad Prism 8 (ns, p-value > 0.05; *, p-value ≤ 0.05; **, p-value ≤ 0.01; ***, p-value ≤ 0.001).

Where [3] appears, read: buffer, Table 1, stirred culture medium at 37°C, read-out: Half-life: time required to reduce the concentration of drug to half of its initial value (converted).
The mark [4] stands for this setting: 37°C, aerobic, medium without serum/cells, 100 µM, read-out: Half-life (T1/2) in stirred medium.

Where two headings read alike, the source gives them in different places.

On to `CCN1CCN(C(=O)c2cc(N(CCBr)CCOS(C)(=O)=O)c(S(C)(=O)=O)cc2[N+](=O)[O-])CC1` [CP-506, 2-[(2-bromoethyl)-5-[(4-ethyl-1-piperazinyl)carbonyl]-2-(methylsulfonyl)-4-nitroanilino]ethyl methanesulfonate], for which the “Time without loss of mass balance in stirred medium” value in data set [1] (37°C, aerobic, stirred medium) is given as “over 360 min”. Besides, the half-life at 100 µM in data set [1] (setting [3]) was 1800 min.

Turning to `CCN1CCN(C(=O)c2cc(N(CCBr)CCOS(C)(=O)=O)c(S(C)(=O)=O)cc2NO)CC1` [CP-506H, 2-((2-bromoethyl)(5-(4-ethylpiperazine-1-carbonyl)-4-(hydroxyamino)-2-(methylsulfonyl)phenyl)amino)ethyl methanesulfonate], the IC50 in data set [2] is less than 10 µM. The half-life at 100 µM is 10.5 min in data set [1] (setting [4]) and 10.8 min in data set [1] (setting [3]).

Turning to `CCN1CCN(C(=O)c2cc(N(CCBr)CCOS(C)(=O)=O)c(S(C)(=O)=O)cc2N)CC1` [CP-506M, 2-((4-amino-5-(4-ethylpiperazine-1-carbonyl)-2-(methylsulfonyl)phenyl)(2-bromoethyl)amino)ethyl methanesulfonate], the IC50 in data set [2] was less than 10 µM. Further, the half-life at 100 µM in data set [1] (setting [4]) is 7.6 min; in data set [1] (setting [3]) it was 7.8 min.

On to `CCN1CCN(C(=O)c2cc(N(CCCl)CCCl)c(S(C)(=O)=O)cc2N)CC1` [CP-506M-Cl2, (2-Amino-5-(bis(2-chloroethyl)amino)-4-(methylsulfonyl)phenyl)(4-ethylpiperazin-1-yl)methanone], for which the IC50 in data set [2] is less than 10 µM. In addition, in data set [1] (37°C, aerobic, medium without serum/cells, 100 µM), the “Half-life (T1/2) in stirred medium” value was 271 min. The half-life at 100 µM in data set [1] (setting [4]) and in data set [1] (setting [3]) was 271 min in each case. For the same compound, in data set [1] (stirred medium, Figure 3B), the “Fold longer half-life than CP-506H or CP-506M” value is not below 10 fold.
